Experimental findings from article PMC11503540, “Development of a pharmacological evidence‐based anticholinergic burden scale for medications commonly used in older adults” (Geriatrics & Gerontology International, 2023) are described below.

This assay addresses T1, muscarinic receptor (rat brain).
T1 construct: gene Chrm1; native receptors in particulate (40 000 g pellet) preparation of whole brain without cerebellum; subtype mixture not resolved
Briefly: [3H]NMS displacement, rat brain membranes, filtration. Particulars: [3H]NMS 0.3 nM (0.5 nM in data analysis), 30 mM Na+/HEPES pH 7.5, 25 °C, 60 min; competitive. The assay is classed as binding. The source says: [3H]NMS displacement, rat brain membranes, filtration on muscarinic receptor (rat brain)

`CN(C)CCOC1=Cc2ccccc2Sc2ccc(Cl)cc21` [Zotepine] gave an IC50 of 0.554 µM. For `NC1=NCC2c3ccccc3Cc3ccccc3N12` (stereo not drawn) [Epinastine] the value was 26.3 µM. To `CCc1ccc(C(=O)C(C)CN2CCCCC2)cc1` (stereo not drawn) [Eperisone] belongs 0.902 µM; to `COCCCOc1ccnc(C[S+]([O-])c2nc3ccccc3[nH]2)c1C` (stereo not drawn) [Rabeprazole], 18.1 µM. To `C[N+]1(C)CCCC(OC(=O)C(O)(c2ccccc2)c2ccccc2)C1` (stereo not drawn) [Mepenzolate] belongs 0.00306 µM. As for `Cc1c(-c2ccccc2)oc2c(C(=O)OCCN3CCCCC3)cccc2c1=O` [Flavoxate], the 50% inhibitory concentration (IC50) came to 11.5 µM. Consider `CC(C)(C)NCC(O)c1ccccc1Cl` (stereo not drawn) [Tulobuterol], for which the half-inhibitory concentration (IC50) is 71.9 µM. Against the preceding compound, the IC50 is about 6.3-fold higher. For `CCC(NC(C)C)C(O)c1ccc(O)c2[nH]c(=O)ccc12` (stereo not drawn) [Procaterol] the value was 3.9 µM; for `CCC(=O)O[C@]1(C(=O)SCF)[C@H](C)C[C@H]2[C@@H]3C[C@H](F)C4=CC(=O)C=C[C@]4(C)[C@@]3(F)[C@@H](O)C[C@@]21C` [Fluticasone Propionate], 8 µM. To `O=C(Nc1ccc(C[C@@H]2CC[C@H]([C@H](O)c3ccccc3)N2)cc1)[C@@H]1CCc2nccc(=O)n21` [Vibegron] belongs 5.32 µM; to `C[C@@H]1C[C@H]2[C@@H]3C[C@H](F)C4=CC(=O)C=C[C@]4(C)[C@@]3(F)[C@@H](O)C[C@]2(C)[C@@]1(OC(=O)c1ccco1)C(=O)SCF` [Fluticasone furoate], 18.2 µM; to `O=C(O[C@H]1CN2CCC1CC2)N1CCc2ccccc2[C@@H]1c1ccccc1` [Solifenacin], 0.00738 µM. For `CN1CCC2=C(C1)c1ccccc1Cc1ccccc12` [Setiptiline] the value was 1.97 µM; for `OCc1cc(C(O)CNCCCCCCOCCCCc2ccccc2)ccc1O` (stereo not drawn) [Salmeterol], 6.1 µM; for `C[N+]1(C)[C@@H]2C[C@@H](OC(=O)C(O)(c3cccs3)c3cccs3)C[C@H]1[C@@H]1O[C@@H]12` [Tiotropium], 0.00039 µM. Turning to `CN(C)CCC=C1c2ccccc2CCc2ccccc21` [Amitriptyline], the IC50 was 0.0293 µM. For `OC(c1ccccc1)(c1ccccc1)C12CC[N+](CCOCc3ccccc3)(CC1)CC2` [Umeclidinium] the value was 0.00015 µM; for `CN(C)CCCN1c2ccccc2Sc2ccc(Cl)cc21` [Chlorpromazine], 0.376 µM; for `CCCC[C@H](C)C[C@H](O)/C=C/[C@H]1[C@H](O)CC(=O)[C@@H]1CCCC/C=C/C(=O)O` [Limaprost], 56.1 µM. On to `CC(C)N(CCC(C(N)=O)(c1ccccc1)c1ccccn1)C(C)C` (stereo not drawn) [Disopyramide], for which the IC50 is 5.99 µM. `CCCOC(C(=O)OC1CCN(C)CC1)(c1ccccc1)c1ccccc1` [Propiverine] displayed an IC50 of 0.35 µM. To `CC#CCn1c(N2CCC[C@@H](N)C2)nc2c1c(=O)n(Cc1nc(C)c3ccccc3n1)c(=O)n2C` [Linagliptin] belongs 2.89 µM; to `OC(CCN1CCCCC1)(c1ccccc1)C1CC2C=CC1C2` (stereo not drawn) [Biperiden], 0.0105 µM. To `CNCC[C@H](Oc1cccc2ccccc12)c1cccs1` [Duloxetine] belongs 19.3 µM; to `CC(C)COCC(CN(Cc1ccccc1)c1ccccc1)N1CCCC1` (stereo not drawn) [Bepridil], 20.8 µM. For `Clc1ccc(C(OCCN2CCCCC2)c2ccccc2)cc1` (stereo not drawn) [Cloperastine] the value was 0.0003 µM; for `OC(CCCN1CCCCC1)(c1ccccc1)c1ccccc1` [Difenidol], 0.325 µM.

The compound `COc1ccc(CC(C)NCC(O)c2ccc(O)c(NC=O)c2)cc1` (stereo not drawn) [Formoterol] showed an IC50 of 14.3 µM. To `OC[C@H]1O[C@@H](c2ccc(Cl)c(Cc3ccc(O[C@H]4CCOC4)cc3)c2)[C@H](O)[C@@H](O)[C@@H]1O` [Empagliflozin] belongs 22.1 µM.

As for `CC(CN(C)C)CN1c2ccccc2CCc2ccccc21` (stereo not drawn) [Trimipramine], the IC50 turned out to be 0.099 µM. `COc1cc2nc(N3CCN(C(=O)C4COc5ccccc5O4)CC3)nc(N)c2cc1OC` (stereo not drawn) [Doxazosin] gave an IC50 of 13.2 µM. For `CC(C)C(=O)Oc1ccc(CO)cc1[C@H](CCN(C(C)C)C(C)C)c1ccccc1` [Fesoterodine] the value was 0.012 µM. To `CNCCC=C1c2ccccc2CCc2ccccc21` [Nortriptyline] belongs 0.168 µM; to `Cc1cncc(CN2CCC(=C3c4ccc(Cl)cc4CCc4cccnc43)CC2)c1` [Rupatadine], 1.51 µM. Compound `CN(CCCCCCN(C)C(=O)Oc1ccc[n+](C)c1)C(=O)Oc1ccc[n+](C)c1` [Distigmine] registered an IC50 of 1.7 µM. The compound `CN(C)CCC(c1ccc(Cl)cc1)c1ccccn1` (stereo not drawn) [Chlorpheniramine] registered an IC50 of 5.1 µM. This IC50 lies about 3-fold higher than the previous one.

In the case of `CCc1cc2c(cc1CC)CC(NC[C@H](O)c1ccc(O)c3[nH]c(=O)ccc13)C2` [Indacaterol], the IC50 was 39.3 µM. For `Nc1nc(CC(=O)Nc2ccc(CCNC[C@H](O)c3ccccc3)cc2)cs1` [Mirabegron] the value was 6.62 µM. To `COc1cc(O)c(C(=O)Nc2nc(C(=O)NCCN(C(C)C)C(C)C)cs2)cc1OC` [Acotiamide] belongs 44.2 µM; to `OCc1cc([C@@H](O)CNCCCCCCOCCOCc2c(Cl)cccc2Cl)ccc1O` [Vilanterol], 6.1 µM; to `Cn1c(=O)cc(N2CCC[C@@H](N)C2)n(Cc2ccccc2C#N)c1=O` [Alogliptin], 81.5 µM. For `CNCc1cc(-c2ccccc2F)n(S(=O)(=O)c2cccnc2)c1` [Vonoprazan] the value was 1.7 µM; for `OC(CCN1CCCCC1)(c1ccccc1)c1ccccc1` [Pridinol], 0.0536 µM. With `Clc1ccccc1CN1CCc2sccc2C1` [Ticlopidine], the IC50 was 18 µM. In turn, `CN(C)CCCN1c2ccccc2CCc2ccccc21` [Imipramine] returned an IC50 of 0.279 µM. Compared with the last compound, the IC50 is about 65-fold lower.
